# Source: patent US12378263B2, “Modulators of sestrin-GATOR2 interaction and uses thereof” (Navitor Pharmaceuticals, Inc., priority 2015, dated 2025)
# What was measured:
# mTORC1 = experiment: Cell-based mTORC1 activation (Method 2), western blot of phosphorylated S6 Kinase and 4EBP1 in HEK293T cells; conditions: shift relative to DMSO control, HEK293T cells after leucine starvation
# Description: Briefly, 800,000 HEK293T cells were plated in each well of a 6-well plate in DMEM supplemented with 10% fetal bovine serum and antibiotics. […] Cells were then lysed, processed for SDS-PAGE and western blotting was performed with antibodies directed against the mTORC1 substrates phosphorylated S6 Kinase (Thr389) and phosphorylated 4EBP1 (Thr37/46) (Cell Signaling Technology) and loading controls (beta-actin, Santa Cruz Biotechnology) as described in Kang, S. A., et al. Science 341(6144): 364-374 (2013). The intensity of the bands corresponding to the phosphorylated substrates were then normalized to the actin band using the LI-COR® imaging platform.
# [1] = target: T1, GATOR2/Sestrin2 complexes (Homo sapiens, UniProt P58004); experiment: In vitro PPI assay (Method 1): Sestrin2 bound to GATOR2, western blot, % activity relative to leucine; format: binding; conditions: compound at 25 μM; leucine 25 μM = 100% activity; duplicate
# T1 construct: The Flag-WDR24/endogenous-Sestrin2 complex was isolated as follows; expressed in transfected cells; host or cells: HEK293T cells stably expressing FLAG-WDR24 (lentiviral vector pLJM60); Sestrin2 and the remaining GATOR2 subunits are endogenous
# T1 sequence (P58004 1-480): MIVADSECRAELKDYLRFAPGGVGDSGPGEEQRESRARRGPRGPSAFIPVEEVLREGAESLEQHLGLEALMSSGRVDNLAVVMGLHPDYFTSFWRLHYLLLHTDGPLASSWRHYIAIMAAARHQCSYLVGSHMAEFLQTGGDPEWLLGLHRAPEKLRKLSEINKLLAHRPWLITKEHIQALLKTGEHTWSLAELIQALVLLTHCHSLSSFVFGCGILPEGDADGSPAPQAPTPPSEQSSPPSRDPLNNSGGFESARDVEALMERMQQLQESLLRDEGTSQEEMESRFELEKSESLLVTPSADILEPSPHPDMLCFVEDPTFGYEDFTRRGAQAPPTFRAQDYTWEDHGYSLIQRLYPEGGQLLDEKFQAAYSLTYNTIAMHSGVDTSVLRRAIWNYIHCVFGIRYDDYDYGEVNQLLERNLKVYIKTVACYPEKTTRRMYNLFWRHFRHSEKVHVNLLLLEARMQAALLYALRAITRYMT
# Description: This screening assay measured test compound activity in vitro on GATOR2/Sestrin2 complexes purified via immunoprecipitation of stably expressed FLAG-WDR24 from HEK293T cells. HEK293T cells (293 Ts) were engineered to stably express N-terminally tagged FLAG-WDR24 via transduction by lentivirus. Lentiviruses were produced by co-transfection of the lentiviral transfer vector pLJM60 with the […] into HEK-293T cells using the XTremeGene 9 transfection reagent (Roche Diagnostics). The media was changed 24 hours post-transfection to Dulbecco's Modified Eagle's media (DMEM) supplemented with 30% Inactivated Fetal Serum. The virus-containing supernatants were collected 48 and 72 hours after transfection and passed through a 0.45 μm filter to eliminate cells. Target cells in 6-well tissue culture plates were infected in media containing 8 μg/mL polybrene and spin infections were performed by centrifugation at 2,200 rpm for 1 hour. Twenty-four hours after infection, the virus was removed and the cells selected with the appropriate antibiotic. Cells were then grown in DMEM supplemented with 10% fetal bovine serum and antibiotics.
# Seventy-two hours later, cells were placed in standard RPMI media formulated with no amino acids and supplemented with 5 mM Glucose (−AA RPMI, US Biological Life Sciences) for 1 hour then subsequently lysed in lysis buffer (40 mM HEPES, 1% Triton, 10 mM sodium β-glycerophosphate, 10 mM sodium pyrophosphate, 2.5 mM MgCl2 and protease inhibitors). […]
# The resulting western blots were scanned and band intensities corresponding to Sestrin2 and FLAG-WDR24 were quantified using the LI-COR® imaging platform. […]
# This screening assay measured compound activity in vitro on GATOR2/Sestrin2 complexes purified via immunoprecipitation of stably expressed Flag-WDR24 from HEK293T cells. […]
# Sestrin2 = target: T2, Sestrin2 (Homo sapiens, UniProt P58004); experiment: Indirect ligand binding assay (ILBA, Method 7), immunoprecipitation with CST anti-Sestrin2 antibody; conditions: crude lysate of amino acid starved human cell line, 1 hour incubation
# T2 construct: crude lysate generated from a human cell line; endogenous in cells; host or cells: Unnamed human cell line (crude lysate)
# T2 sequence (P58004 1-480): T1 sequence (P58004 1-480)
# Description: Conversely, compounds that destabilized Sestrin2 as measured by thermal shift assay increased the affinity of the CST antibody for non-denatured Sestrin2. […] In one version, the assay was performed with crude lysate generated from a human cell line after a 1-hour period of amino acid starvation (cells are lysed in 1% Triton, 10 mM beta-glycerol phosphate, 10 mM sodium pyrophosphate, 40 mM HEPES [pH 7.4], 150 mM NaCl and 2.5 mM MgCl2). […] After compound incubation, samples were subjected to immunoprecipitation with the CST anti-Sestrin2 antibody for 1.5 hours followed by a 30-minute incubation with protein-A sepharose as described in L. Chantranupong, et al., Cell Reports 9:1-8 (2014). The sepharose conjugated antibody-protein complex was precipitated via centrifugation and the flow-through was subjected to a second round of immunoprecipitation with a rabbit polyclonal anti-Sestrin2 antibody (Protein Tech, #10795-1-AP) to determine that total Sestrin2 protein levels between samples were equal. SDS-PAGE was performed with the immunoprecipitation samples followed by western-blot with the mouse monoclonal anti-Sestrin2 antibody from SIGMA (cat #WH0083667M3). […] This version of the assay also measured increased instability of Sestrin2 induced by incubation with compounds.
SMILES,Cell-Based mTORC1 Activation (mTORC1; 100 μM),further results
"C[C@H](CC(N)C(=O)O)C(F)(F)F (stereo in doubt) [Example I-167, (2R,4R)-2-amino-5,5,5-trifluoro-4-methylpentanoic acid]",D to F,–
"N[C@H](CCCC(F)(F)F)C(=O)O [Example I-9, (R)-2-amino-6,6,6-trifluorohexanoic acid]",E (a shift relative to DMSO of 2.1-5 fold),–
CC(C)C[C@@H](N)B1OC(C)(C)C(C)(C)O1 [Example I-10],–,Cell-Based mTORC1 Activation (mTORC1; 30 and 100 μM): D (a shift relative to DMSO control of 0.5 to 2 fold)
CC(C)C[C@H](N)C(N)=O.Cl [Example I-23],D to F,–
N[C@@H](CC1CCC1)C(=O)O [Example I-37],E to F,–
CC(C)CCC(N)C(=O)O (stereo not drawn) [Example I-41],–,Activity of Leucine: % Activity [1]: A (% activity relative to leucine of ≥40%)
NC(CCCC(F)(F)F)C(=O)O (stereo not drawn) [Example I-42],D to F,–
CC(C)(C)C[C@H](N)C(=O)O [Example I-43],D to E,–
CC(C)C[C@H](N)C(=O)O [Example I-44],D (a shift relative to DMSO control of 0.5 to 2 fold),–
"CC(C)C(F)(F)[C@H](N)C(=O)O [Example I-46, (R)-2-amino-3,3-difluoro-4-methylpentanoic acid]",D (a shift relative to DMSO control of 0.5 to 2 fold),–
"CC(C)C(F)(F)[C@@H](N)C(=O)O [Example I-47, (S)-2-amino-3,3-difluoro-4-methylpentanoic acid]",D (a shift relative to DMSO control of 0.5 to 2 fold),–
CC(C)C[C@H](N)S(=O)(=O)O [Example I-157],–,Activity of Leucine: % Activity [1]: B to C
CC(C)C[C@H](N)C(=O)NC(C)(C)C [Example I-165],–,Activity of Leucine: % Activity [1]: A to C
COC(=O)[C@@H](N)CC(C)C [Example I-168],D to E,–
CC(C)C[C@H](N)C(=O)O [leucine],–,decrease in the intensity of the band corresponding to Sestrin2 (CST antibody immunoprecipitation) (Sestrin2): ≥ 50%
